Drawing on patent US8871753B2, “Macrocyclic compounds and their use as kinase inhibitors” (Incyte Corporation, priority 2008, dated 2014), this text covers IC50 for 17 compounds.

Common to all, as to type: biochemical
Experiment [1] concerns the target T1, human JAK2 (a.a. 828-1132) (Homo sapiens, UniProt O60674).
T1 construct: JAK2 (a.a. 828-1132); His tag (N); made in house; host or cells: insect cells (baculovirus)
The experiment can be described thus: In vitro JAK kinase assay (HTRF, phosphorylation of a biotinylated peptide), JAK2. A digest of the protocol:
(§1)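 Kinase reactions ran at room temperature for 1 h with ATP matched per isoform (JAK1 90 μM, JAK2 30 μM, JAK3 3 μM). After an EDTA stop, the phosphorylated biotin-peptide was read by HTRF using Eu-Py20 and SA-APC after 40 min binding.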

The target of the next experiment is TYK2 (Homo sapiens, UniProt P29597). The experiment is described as follows: TYK2 kinase inhibition (Table A1).
Sequence of TYK2 (P29597 whole entry): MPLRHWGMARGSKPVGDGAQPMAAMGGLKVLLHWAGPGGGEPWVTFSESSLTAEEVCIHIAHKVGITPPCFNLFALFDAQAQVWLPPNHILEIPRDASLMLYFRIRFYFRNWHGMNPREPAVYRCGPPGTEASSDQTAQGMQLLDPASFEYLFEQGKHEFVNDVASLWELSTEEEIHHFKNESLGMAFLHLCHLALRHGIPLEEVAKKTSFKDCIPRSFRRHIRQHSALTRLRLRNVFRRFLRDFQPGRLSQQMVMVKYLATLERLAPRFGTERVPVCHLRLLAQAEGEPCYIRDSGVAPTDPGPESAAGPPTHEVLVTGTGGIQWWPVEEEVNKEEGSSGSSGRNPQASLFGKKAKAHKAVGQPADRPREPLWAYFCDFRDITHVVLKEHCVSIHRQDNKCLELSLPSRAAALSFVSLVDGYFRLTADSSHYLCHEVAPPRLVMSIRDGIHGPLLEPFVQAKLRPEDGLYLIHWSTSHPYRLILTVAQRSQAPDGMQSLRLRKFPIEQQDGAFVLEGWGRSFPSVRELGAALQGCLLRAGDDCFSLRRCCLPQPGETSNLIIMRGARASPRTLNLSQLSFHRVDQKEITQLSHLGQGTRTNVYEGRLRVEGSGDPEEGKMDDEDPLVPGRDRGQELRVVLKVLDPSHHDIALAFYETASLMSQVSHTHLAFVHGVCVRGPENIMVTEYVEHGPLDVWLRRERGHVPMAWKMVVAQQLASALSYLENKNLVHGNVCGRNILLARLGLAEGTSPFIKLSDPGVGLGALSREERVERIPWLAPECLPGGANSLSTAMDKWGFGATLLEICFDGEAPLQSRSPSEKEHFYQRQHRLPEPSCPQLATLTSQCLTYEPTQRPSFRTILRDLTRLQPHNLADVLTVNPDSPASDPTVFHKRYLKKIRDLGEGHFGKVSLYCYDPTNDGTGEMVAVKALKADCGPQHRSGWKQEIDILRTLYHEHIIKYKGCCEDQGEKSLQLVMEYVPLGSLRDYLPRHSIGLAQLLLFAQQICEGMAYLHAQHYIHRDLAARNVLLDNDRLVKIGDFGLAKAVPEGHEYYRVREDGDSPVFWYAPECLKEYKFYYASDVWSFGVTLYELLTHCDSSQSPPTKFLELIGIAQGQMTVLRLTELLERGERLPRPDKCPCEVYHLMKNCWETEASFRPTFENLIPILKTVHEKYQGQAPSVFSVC
In experiment [2] the target is T2, human JAK1 (a.a. 837-1142) (Homo sapiens, UniProt P23458).
T2 construct: human JAK1 (a.a. 837-1142); His tag (N); made in house; host or cells: insect cells (baculovirus)
T2 sequence (P23458 849-1154): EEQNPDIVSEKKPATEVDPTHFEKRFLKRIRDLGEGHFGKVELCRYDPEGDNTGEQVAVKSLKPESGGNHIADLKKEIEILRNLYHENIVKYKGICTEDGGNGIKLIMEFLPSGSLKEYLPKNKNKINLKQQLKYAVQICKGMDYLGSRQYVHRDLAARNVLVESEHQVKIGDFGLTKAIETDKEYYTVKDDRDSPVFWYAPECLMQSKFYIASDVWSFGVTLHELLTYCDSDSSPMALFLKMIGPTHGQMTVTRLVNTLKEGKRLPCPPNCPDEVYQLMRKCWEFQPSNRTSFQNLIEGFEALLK
The experiment can be described thus: In vitro JAK kinase assay (HTRF, phosphorylation of a biotinylated peptide), JAK1. Particulars: read-out: JAK1 IC50. A digest of the protocol: as §1

Experiment [3] concerns the target T3, human JAK3 (a.a. 781-1124) (Homo sapiens, UniProt P52333).
T3 construct: JAK3 (a.a. 781-1124); His tag (N); made in house; host or cells: insect cells (baculovirus)
The experiment can be described thus: In vitro JAK kinase assay (HTRF, phosphorylation of a biotinylated peptide), JAK3. The procedure:
The catalytic activity of JAK1, JAK2 or JAK3 was assayed by measuring the phosphorylation of a biotinylated peptide. The phosphorylated peptide was detected by homogenous time resolved fluorescence (HTRF). […] The ATP concentration in the reactions was 90 μM for JAK1, 30 μM for JAK2 and 3 μM for JAK3. Reactions were carried out at room temperature for 1 hr and then stopped with 20 μL 45 mM EDTA, 300 nM SA-APC, 6 nM Eu-Py20 in assay buffer (Perkin Elmer, Boston, Mass.). Binding to the Europium labeled antibody took place for 40 minutes and HTRF signal was measured on a Fusion plate reader (Perkin Elmer, Boston, Mass.).
The catalytic activity of JAK1, JAK2 or JAK3 was assayed by measuring the phosphorylation of a biotinylated peptide. The phosphorylated peptide was detected by homogenous time resolved fluorescence (HTRF). […] Reactions were carried out at room temperature for 1 hr and then stopped with 20 μL 45 mM EDTA, 300 nM SA-APC, 6 nM Eu-Py20 in assay buffer (Perkin Elmer, Boston, Mass.). Binding to the Europium labeled antibody took place for 40 minutes and HTRF signal was measured on a Fusion plate reader (Perkin Elmer, Boston, Mass.).

Setting [4] is: method AA1 (30 μM ATP) or AA2 (1000 μM ATP), not stated per value.
Where [5] appears, read: method AA1 (90 μM ATP) or AA2 (1000 μM ATP), not stated per value.
Setting [6] is: method AA1 (3 μM ATP) or AA2 (1000 μM ATP), not stated per value.

Molecules are shown by their SMILES. Structures can show the parent of a compound that is named as a salt. Where two headings read alike, the source gives them in different places. Some results are limits rather than exact numbers.

T1 sequence (O60674 828-1132): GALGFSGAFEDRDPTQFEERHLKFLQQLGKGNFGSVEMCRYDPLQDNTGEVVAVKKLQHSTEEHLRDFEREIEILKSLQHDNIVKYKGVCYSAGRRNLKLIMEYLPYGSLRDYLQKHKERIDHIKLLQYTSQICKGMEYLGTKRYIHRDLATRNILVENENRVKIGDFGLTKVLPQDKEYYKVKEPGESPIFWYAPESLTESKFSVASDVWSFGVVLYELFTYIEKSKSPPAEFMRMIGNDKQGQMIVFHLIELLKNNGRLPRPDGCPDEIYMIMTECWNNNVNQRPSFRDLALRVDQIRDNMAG
T3 sequence (P52333 781-1124): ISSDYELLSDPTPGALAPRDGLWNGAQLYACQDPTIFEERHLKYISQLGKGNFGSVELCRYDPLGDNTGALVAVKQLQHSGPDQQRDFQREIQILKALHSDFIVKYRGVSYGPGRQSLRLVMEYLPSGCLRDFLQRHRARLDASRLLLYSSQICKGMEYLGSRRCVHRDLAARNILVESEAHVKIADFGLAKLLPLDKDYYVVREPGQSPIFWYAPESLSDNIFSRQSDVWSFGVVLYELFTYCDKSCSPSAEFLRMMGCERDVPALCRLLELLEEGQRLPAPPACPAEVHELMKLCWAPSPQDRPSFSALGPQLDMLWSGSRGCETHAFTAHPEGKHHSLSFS

In the case of `N#Cc1ccc(NC(=O)N2CCC(C(=O)Nc3ccc4cc3CCc3cccc(c3)Nc3ncc(Cl)c(n3)N4)CC2)cc1` [Example A37, N(4)-[6-Chloro-2,4,8,22-tetraazatetracyclo[14.3.1.1(3,7).1(9,13)]docosa-1(20),3(22),4,6,9(21),10,12,16,18-nonaen-12-yl]-N(1)-(4-cyanophenyl)piperidine-1,4-dicarboxamide trifluoroacetate], the half-inhibitory concentration (IC50) in experiment [1] (setting [4]) is 0.011 µM; on TYK2, 0.021 µM; in experiment [2] (setting [5]), 0.009 µM; in experiment [3] (setting [6]), 0.024 µM.

With `O=C(Nc1ccc2cc1CCc1cccc(c1)Nc1ncc(Cl)c(n1)N2)C1CCN(C(=O)Nc2ccc(Cl)nc2)CC1` [Example A40, N(1)-(6-Chloropyridin-3-yl)-N(4)-[6-chloro-2,4,8,22-tetraazatetracyclo[14.3.1.1(3,7).1(9,13)]docosa-1(20),3(22),4,6,9(21),10,12,16,18-nonaen-12-yl]piperidine-1,4-dicarboxamide bis(trifluoroacetate)], the 50% inhibitory concentration (IC50) in experiment [1] (setting [4]) was determined as 0.015 µM; on TYK2 it was 0.018 µM; in experiment [2] (setting [5]) it was 0.016 µM; in experiment [3] (setting [6]) it was 0.03 µM.

As to `O=C(CC1CCN(c2nc3cccnc3o2)CC1)Nc1ccc2cc1CCc1cccc(c1)Nc1ncc(Cl)c(n1)N2` [Example A126, N-[6-Chloro-2,4,8,22-tetraazatetracyclo[14.3.1.1(3,7).1(9,13)]docosa-1(20),3(22),4,6,9(21),10,12,16,18-nonaen-12-yl]-2-(1-[1,3]oxazolo[5,4-b]pyridin-2-ylpiperidin-4-yl)acetamide bis(trifluoroacetate)], the IC50 was found to be 0.0026 µM in experiment [1] (setting [4]), 0.0075 µM at TYK2, 0.0005 µM in experiment [2] (setting [5]) and 0.034 µM in experiment [3] (setting [6]).

Turning to `O=C(Nc1ccc2cc1CCc1cccc(c1)Nc1ncc(Cl)c(n1)N2)N1CCCC1` [Example B81, N-[6-Chloro-2,4,8,22-tetraazatetracyclo[14.3.1.1(3,7).1(9,13)]docosa-1(20), 3(22),4,6,9(21),10,12,16,18-nonaen-12-yl]pyrrolidine-1-carboxamide trifluoroacetate], the IC50 turned out to be 0.123 µM in experiment [1] (Table B1), 0.221 µM against TYK2 (Table B1), 0.109 µM in experiment [2] (Table B1) and 0.475 µM in experiment [3] (Table B1).

With `O=C(NCc1ccco1)Nc1ccc2cc1CCc1cncc(c1)Nc1ncc(Cl)c(n1)N2` [Example B134, N-[6-Chloro-2,4,8,18,22-pentaazatetracyclo[14.3.1.1(3,7).1(9,13)]docosa-1(20),3(22),4,6,9(21),10,12,16,18-nonaen-12-yl]-N′-(2-furylmethyl)urea bis(trifluoroacetate)], the concentration for half-maximal inhibition (IC50) in experiment [1] (Table B1) was determined as 0.0017 µM; against TYK2 (Table B1), 0.0028 µM; in experiment [2] (Table B1), 0.00075 µM; in experiment [3] (Table B1) it was 0.023 µM.

With `Cc1nc(S(=O)(=O)Nc2ccc3cc2CCc2cccc(c2)Nc2ncc(Cl)c(n2)N3)cn1C` [Example B151, N-[6-Chloro-2,4,8,22-tetraazatetracyclo[14.3.1.1(3,7).1(9,13)]docosa-1(20),3(22),4,6,9(21),10,12,16,18-nonaen-12-yl]-1,2-dimethyl-1H-imidazole-4-sulfonamide bis(trifluoroacetate)], the 50% inhibitory concentration (IC50) in experiment [1] (Table B1) came out at 0.0012 µM; on TYK2 (Table B1), 0.0014 µM; in experiment [2] (Table B1), 0.0029 µM; in experiment [3] (Table B1), 0.036 µM.

Turning to `O=C(Nc1cc2cc(c1)Nc1nc(ncc1Cl)Nc1cccc(c1)CC2)C1CCC1` [Example B211, N-[6-Chloro-2,4,8,22-tetraazatetracyclo[14.3.1.1(3,7).1(9,13)]docosa-1(20),3(22),4,6,9(21),10,12,16,18-nonaen-11-yl]cyclobutanecarboxamide trifluoroacetate], the IC50 in experiment [1] (Table B1) worked out at 0.02 µM; on TYK2 (Table B1) it was 0.191 µM; in experiment [2] (Table B1), 0.056 µM; in experiment [3] (Table B1), 0.135 µM.

As to `O=C(c1ccccc1)N1Cc2cccc(c2)Nc2ncc(Cl)c(n2)Nc2cccc1c2` [Example C22, 14-Benzoyl-6-chloro-2,4,8,14,22-pentaazatetracyclo[14.3.1.1(3,7).1(9,13)]docosa-1(20),3(22),4,6,9(21),10,12,16,18-nonaene], the half-maximal inhibitory concentration (IC50) in experiment [1] is 0.032 µM; against TYK2, 0.088 µM; in experiment [2], 0.024 µM; in experiment [3] it was above 0.4 µM.

As to `O=C(c1ccccn1)N1Cc2cccc(c2)Nc2ncc(Cl)c(n2)Nc2cccc1c2` [Example C23, 6-Chloro-14-(pyridin-2-ylcarbonyl)-2,4,8,14,22-pentaazatetracyclo[14.3.1.1(3,7).1(9,13)]docosa-1(20),3(22),4,6,9(21),10,12,16,18-nonaene], the IC50 in experiment [1] is 0.281 µM; at TYK2 it was 1.14 µM; in experiment [2], 0.162 µM; in experiment [3], above 10 µM.

For the compound `Cc1ccc(C(=O)N2Cc3cccc(c3)Nc3ncc(Cl)c(n3)Nc3cccc2c3)cc1` [Example C24, 6-Chloro-14-(4-methylbenzoyl)-2,4,8,14,22-pentaazatetracyclo[14.3.1.1(3,7).1(9,13)]docosa-1(20),3(22),4,6,9(21),10,12,16,18-nonaene], the 50% inhibitory concentration (IC50) in experiment [1] amounted to 0.154 µM; against TYK2, 1.03 µM; in experiment [2] it was 0.095 µM; in experiment [3], 1.2 µM.

For the compound `O=C(c1cccs1)N1Cc2cccc(c2)Nc2ncc(Cl)c(n2)Nc2cccc1c2` [Example C25, 6-Chloro-14-(2-thienylcarbonyl)-2,4,8,14,22-pentaazatetracyclo[14.3.1.1(3,7).1(9,13)]docosa-1(20),3(22),4,6,9(21),10,12,16,18-nonaene], the IC50 in experiment [1] is 0.173 µM; against TYK2 it was 0.793 µM; in experiment [2], 0.091 µM; in experiment [3], above 10 µM.

On to `CCCC(=O)N1Cc2cccc(c2)Nc2ncc(Cl)c(n2)Nc2cccc1c2` [Example C26, 14-Butyryl-6-chloro-2,4,8,14,22-pentaazatetracyclo[14.3.1.1(3,7).1(9,13)]docosa-1(20),3(22),4,6,9(21),10,12,16,18-nonaene], for which the half-maximal inhibitory concentration (IC50) is 0.357 µM in experiment [1], 1.42 µM against TYK2, 0.228 µM in experiment [2] and above 10 µM in experiment [3].

On to `O=C(c1cccnc1)N1Cc2cccc(c2)Nc2ncc(Cl)c(n2)Nc2cccc1c2` [Example C27, 6-Chloro-14-(pyridin-3-ylcarbonyl)-2,4,8,14,22-pentaazatetracyclo[14.3.1.1(3,7).1(9,13)]docosa-1(20),3(22),4,6,9(21),10,12,16,18-nonaene], for which the IC50 in experiment [1] stood at 0.059 µM; against TYK2, 0.501 µM; in experiment [2] it was 0.043 µM; in experiment [3], 1.29 µM.

For `COC(=O)c1ccc2cc1CCc1cncc(c1)Nc1ncc(Cl)c(n1)N2` [Example C28, Methyl 6-chloro-2,4,8,18,22-pentaazatetracyclo[14.3.1.1(3,7).1(9,13)]docosa-1(20),3(22),4,6,9(21),10,12,16,18-nonaene-12-carboxylate], the IC50 in experiment [1] was 0.1 µM; on TYK2, above 0.2 µM; in experiment [2], 0.12 µM; in experiment [3], above 0.2 µM.

`O=C(Cc1c[nH]c2ccccc12)Nc1ccc2cc1CCc1cccc(c1)Nc1ncc(Cl)c(n1)N2` [Example C29, N-[6-Chloro-2,4,8,22-tetraazatetracyclo[14.3.1.1(3,7).1(9,13)]docosa-1(20),3(22),4,6,9(21),10,12,16,18-nonaen-12-yl]-2-(1H-indol-3-yl)acetamide bis(trifluoroacetate)]: the 50% inhibitory concentration (IC50) in experiment [1] turned out to be 0.068 µM; against TYK2, 0.227 µM; in experiment [2], 0.043 µM; in experiment [3], 1.03 µM.

In the case of `Cc1cc(CC(=O)Nc2ccc3cc2CCc2cccc(c2)Nc2ncc(Cl)c(n2)N3)on1` [Example C30, N-[6-Chloro-2,4,8,22-tetraazatetracyclo[14.3.1.1(3,7).1(9,13)]docosa-1(20),3(22),4,6,9(21),10,12,16,18-nonaen-12-yl]-2-(3-methylisoxazol-5-yl)acetamide trifluoroacetate], the IC50 is 0.056 µM in experiment [1], 0.136 µM against TYK2, 0.031 µM in experiment [2] and 0.99 µM in experiment [3].

Take `O=C(Cc1nnn[nH]1)Nc1ccc2cc1CCc1cccc(c1)Nc1ncc(Cl)c(n1)N2` [Example C31, N-[6-Chloro-2,4,8,22-tetraazatetracyclo[14.3.1.1(3,7).1(9,13)]docosa-1(20),3(22),4,6,9(21),10,12,16,18-nonaen-12-yl]-2-(1H-tetrazol-5-yl)acetamide trifluoroacetate]: the 50% inhibitory concentration (IC50) in experiment [1] turned out to be 0.024 µM; against TYK2, 0.481 µM; in experiment [2], 0.14 µM; in experiment [3], 0.404 µM.
